According to publication PMC11581978, “Paenilamicins are context-specific translocation inhibitors of protein synthesis” (Nature Chemical Biology, 2024):
Entries after “also recorded” stand apart in the source; their conditions may differ.

Key:
[1] = test system: ribosomes translating ErmBL mRNA; assay: Toeprinting on ErmBL mRNA templates (Figs. 4a and 5c); type: biochemical, E. coli; details: 100 µM
Description: Toeprinting reactions for Figs. 4a and 5c were performed as described previously. Briefly, reactions were performed with 5 μl of PURExpress in vitro protein synthesis system. The reactions contained 0.1 pmol of the respective DNA template (Supplementary Table 2) and were supplemented with retapamulin, erythromycin, mupirocin or PamB2 as specified. The transcription–translation reactions were incubated 20 min at 37 °C. Subsequently, reverse transcription was performed for 10 min at 37 °C using AMV RT and the radiolabeled NV*1-primer. Reactions were stopped by the addition of 1 µl of 10 M NaOH and then neutralized with 0.8 µl of concentrated HCl. Subsequently, 200 µl of the stop buffer (0.3 M sodium acetate (pH 5.5), 5 mM EDTA and 0.5% SDS) was added and phenol extraction was performed. The obtained complementary DNA was precipitated in ethanol for subsequent gel electrophoresis.

E. coli 70S ribosome = assay: Cryo-EM of PamB2-stalled ribosome complexes; type: binding; details: 50 µM
Description: PamB2-ribosome complexes were generated by in vitro transcription–translation reactions in PURExpress in vitro protein synthesis system (New England Biolabs) with the same reaction mix as described earlier in the toeprinting assays. Complex formation reactions were carried out on MLIFstop toeprint DNA template in a 48 µl of reaction in presence of 50 µM PamB2. The reaction was incubated for 15 min at 37 °C. The reaction volume was then split: 42 µl were used for complex generation and 6 µl were used for toeprinting analysis. Ribosome complexes were isolated by centrifugation in 900 µl of sucrose gradient buffer (containing 40% sucrose, 50 mM HEPES-KOH, pH 7.4, 100 mM KOAc, 25 mM Mg(OAc)2 and 6 mM 2-mercaptoethanol) for 3 h at 4 °C with 80,000g in a Optima Max-XP Tabletop Ultracentrifuge with a TLA 120.2 rotor. The pelleted complex was resuspended in Hico buffer (50 mM HEPES-KOH, pH 7.4, 100 mM KOAc, 25 mM Mg(OAc)2) supplemented with 50 µM PamB2, then incubated for 15 min at 37 °C.
Sample volumes of 3.5 μl (eight at an optical density of 260 nm per milliliter) were applied to grids (Quantifoil, Cu, 300 mesh, R3/3 with 3-nm carbon) that had been freshly glow-discharged using a GloQube (Quorum Technologies) in negative charge mode at 25 mA for 90 s. Sample vitrification was performed using an ethane-propane mixture (37:63) in a Vitrobot Mark IV (Thermo Fisher Scientific), the chamber was set to 4 °C and 100% relative humidity and blotting was done for 3 s with no drain or wait time. Frozen cryo-EM grids were imaged on a TFS 300 kV Titan Krios at the Dubochet Center for Imaging EPFL (Lausanne, Switzerland). Images were collected on Falcon IV direct detection camera in counting mode using the EPU and AFIS data collection scheme with a magnification of ×96,000 and a total dose of 60 electrons per square angstrom (e^−/Å^2) for each exposure, and defocus ranging from −0.4 to −0.9 μm. In total, 7,638 videos were produced in EER format at a pixel size of 0.8 Å per pixel.
RELION v.4.0.1 (ref. [46]) was used for processing, unless otherwise specified. For motion correction, RELION’s implementation of MotionCor2 with 4×4 patches and for initial contrast transfer function (CTF) estimation CTFFIND v.4.1.14 (ref. [47]) was used. From 7,638 micrographs, 611,189 particles were picked using crYOLO v.1.8.04b47 with a general model. Then 562,816 ribosome-like particles were selected after two-dimensional classification and extracted at three times decimated pixel size (2.4 Å per pixel) (Supplementary Fig. 1b,c). An initial three-dimensional (3D) refinement was done using a E. coli 70S reference map (EMD-12573)[30]. […]

[2] = test system: EF-G-dependent translocation on the ribosome; assay: Translocation assay (toeprinting, MFKAFK template); type: biochemical; details: EF-G present; tRNAfMet in P-site, N-AcPhe-tRNAPhe in A-site; in duplicate
Description: Translocation assays were performed as previously described[22] using the MFKAFK template[45] (Supplementary Table 2). Reactions were prepared by incubating tight-coupled ribosomes (0.7 µM) with mRNA (0.5 µM) and tRNAi^Met (1 µM) for 20 min at 37 °C in the Pure System Buffer (5 mM potassium phosphate (pH 7.3), 9 mM Mg(OAc)2, 95 mM potassium glutamate, 5 mM NH4Cl, 0.5 mM CaCl2, 1 mM spermidine, 8 mM putrescine and 1 mM dithiothreitol) and for additional 10 min at 37 °C with 2 μM of N-acetyl-Phe-tRNA^Phe. At the time of N-acetyl-Phe-tRNA^Phe addition, the reactions were supplemented with PamB2 or negamycin as specified. The translocation reaction was initiated by addition of 1 µl of EF-G–GTP mixture (1.2 µM and 3.2 mM). After 5 min of incubation at 30 °C, 2 µl of reverse transcriptase and/or dNTPs mixture was added. The reactions were stopped after another 5 min at 30 °C by addition of 200 µl of the stop buffer and subsequent phenol extraction. The obtained complementary DNA was precipitated in ethanol for subsequent gel electrophoresis.

Substance: paenilamicin B2 [PamB2]
- inhibition when Phe-tRNA (ms2i6A37) decodes UUC in the A-site ([1]; ErmBL mRNA): no inhibition
- inhibition when tRNALeu (ms2i6A37) decodes UUG in the A-site ([1]; ErmBL mRNA): not inhibited
- translation through stretches of UUG codons ([1]; ErmBL mRNA with 1–5 UUG repeats): ribosomes can translate through stretches of up to five UUG codons unhindered
- ribosome stalling at serine codon UCA ([1]; ErmBL-(UUG)4 mRNA, seventh codon UCA, tRNASer with ms2i6A37): only weak stalling
- ribosome stalling at serine codon UCC ([1]; ErmBL-(UUG)4 mRNA, seventh codon UCC, tRNASer lacking A37 modification): strong stalling
- ribosome stalling at serine codon UCG ([1]; ErmBL-(UUG)4 mRNA, seventh codon UCG, tRNASer with ms2i6A37): only weak stalling
- ribosome stalling at serine codon UCU ([1]; ErmBL-(UUG)4 mRNA, seventh codon UCU, tRNASer lacking A37 modification): strong stalling
- ribosome stalling at subsequent sites, ErmBL mRNA ([1]; fourth UUC (Phe) in the P-site): a subset of ribosomes also become stalled
- accumulation of ribosomes on AUG start codon, wildtype (1×UUG) ErmBL mRNA ([1]; mupirocin present, in duplicate): did not lead to a strong accumulation of ribosomes on the AUG start codon
- ribosome stalling, wildtype (1×UUG) ErmBL mRNA ([1]; mupirocin present, second codon UUG in the P-site): ribosomes became stalled only once the second ermBL codon (UUG) moved into the P-site
- ribosome stalling at subsequent sites, ErmBL mRNA ([1]; third GUA codon in the P-site): not the third GUA codon in the P-site
- binding to elongating ribosomes (density) (E. coli 70S ribosome; A- and P-site tRNAs (nonrotated) or A/P- and P/E-hybrid tRNAs (rotated), 2.2-2.3 Å): additional density located between the A- and P-site tRNAs that could be unambiguously assigned to PamB2; also recorded: binds stably to the small subunit of elongating ribosomes containing A- and P-site transfer RNAs (tRNAs)
- binding to initiating ribosomes (density) (E. coli 70S ribosome; P-site tRNA only, 2.4 Å): No density for PamB2 was evident; also recorded: not to initiating ribosomes bearing only a P-site tRNA
- peptide bond formation in PamB2-bound elongation complexes (E. coli 70S ribosome; additional density on CCA-end of A-site and A/P-tRNA): peptide bond formation has already occurred
- binding site on the ribosome (E. coli 70S ribosome; cryo-EM): located predominantly on the 30S subunit of the 70S ribosome, where it inserts into the cleft between the A- and P-site tRNAs
- EF-G dependent translocation (toeprint shift) [2]: little to no shift in the toeprint band
